Assay results reported in US5464748A, “Method of detecting and monitoring levels of 3'-amino-3'-deoxythymidine in body fluids and antibodies for same” (The UAB Research Foundation, priority 1993, dated 1995).

Assays:
[1] = tested on: erythroid burst-forming units (BFU-E); test: toxicity to erythroid burst-forming units; type: cell-based; settings: compared with AZT
[2] = tested on: antiviral activity of AZT; test: effect of AMT on antiviral activity of AZT
[3] = tested on: granulocyte macrophage colony-forming units (CFU-GM); test: toxicity to granulocyte macrophage colony-forming units; type: cell-based; settings: compared with AZT
[4] = tested on: Human Immunodeficiency Virus (HIV); settings: HIV infected patients; cited from earlier work
[5] = pharmacokinetics and metabolism of AZT: hepatic catabolites; type: in vivo, human; settings: in addition to GAZT
[6] = recently discovered; Cretton et al 1991; cited from earlier work
bone marrow cells = settings: AZT treatment; cited from earlier work

SMILES	toxicity to BFU-E relative to AZT [1]	effect on the antiviral activity of AZT ([2]; concentrations as low as a 1:1 molar ratio with AZT)	interference with the antiviral activity of AZT ([2]; stated as believed, no concentration given)	toxicity to CFU-GM relative to AZT [3]	clinical benefits [4]	hepatic catabolites of AZT [5]	hepatic catabolite of AZT [6]	toxicity to bone marrow cells (bone marrow cells)
Cc1cn([C@H]2C[C@H](N)[C@@H](CO)O2)c(=O)[nH]c1=O [AMT, 3'-amino-3'-deoxythymidine]	many more times toxic	adverse effect on the antiviral activity of AZT	believed to interfere with the antiviral activity of AZT	many more times toxic				
Cc1cn([C@H]2C[C@H](N=[N+]=[N-])[C@@H](CO)O2)c(=O)[nH]c1=O [AZT, 3'-azido-3'-deoxythymidine]					increased survival, decreased number of opportunistic infections, and partial improvement in neurologic manifestations	3'-amino-3'-deoxythymidine (AMT) and its 5'-O-glucuronide(GAMT)	3'-amino-3'-deoxythymidine (AMT)	toxicity to bone marrow cells, manifested by anemia and neutropenia
